Assay [1] relates to A2058 human melanoma cells. Nature of the assay: LPA1 chemotaxis assay. The conditions noted are these: 100 nM LPA, read-out: inhibition of LPA-driven chemotaxis, IC50. The format is cell-based. On the procedure: Chemotaxis of the A2058 human melanoma cells was measured using the Neuroprobe ChemoTx® System plates (8 μm pore size, 5.7 mm diameter sites). The filter sites were coated with 0.001% fibronectin (Sigma) in 20 mM Hepes, pH 7.4 and allowed to dry. A2058 cells were serum-starved for 24 hours, then harvested with Cell Stripper and resuspended in DMEM containing 0.1% fatty-acid-free bovine serum albumin (BSA) to a concentration of 1×10^6/ml. Cells were mixed with an equal volume of test compound (2×) in DMEM containing 0.1% fatty-acid-free BSA and incubated at 37° C. for 15 minutes. LPA (100 nM in DMEM containing 0.1% fatty-acid-free BSA) or vehicle was added to each well of the lower chamber and 50 μl of the cell suspension/test compound mix was applied to the upper portion of the ChemoTx plate. Plates were incubated at 37° C. for three hours and then the cells removed from the upper portion by rinsing with PBS and scraping. The filter was dried then stained with HEMA 3 Staining System (Fisher Scientific). The absorbance of the filter was read at 590 nm and IC50s were determined using Symyx Assay Explorer.

Assay [2] deals with T1, human LPA1 (Homo sapiens, UniProt Q92633).
T1 construct: the full-length cDNA for human LPA1 was obtained by PCR of the reverse transcription reaction; expressed in transfected cells
T1 sequence (Q92633 whole entry): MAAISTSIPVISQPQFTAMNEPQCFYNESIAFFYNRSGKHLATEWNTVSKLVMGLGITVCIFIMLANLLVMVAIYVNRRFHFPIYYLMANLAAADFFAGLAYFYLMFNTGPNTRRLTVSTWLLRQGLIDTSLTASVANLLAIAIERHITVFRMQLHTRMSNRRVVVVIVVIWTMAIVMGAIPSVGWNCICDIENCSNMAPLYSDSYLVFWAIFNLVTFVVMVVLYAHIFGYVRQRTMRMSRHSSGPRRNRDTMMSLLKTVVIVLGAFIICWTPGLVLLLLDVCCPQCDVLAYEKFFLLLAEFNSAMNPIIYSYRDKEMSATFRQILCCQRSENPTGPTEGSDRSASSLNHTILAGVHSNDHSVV
Put plainly: LPA1 calcium flux assay (HLPA1 Ca Flux). The class given is cell-based. The conditions noted are these: CHO cells stably expressing human LPA1, stimulated with 10 nM LPA. On the procedure:
A 1.1 kb cDNA encoding the human LPA1 receptor was cloned from human lung. Human lung RNA (Clontech Laboratories, Inc. USA) was reverse transcribed using the RETROscript kit (Ambion, Inc.) and the full-length cDNA for human LPA1 was obtained by PCR of the reverse transcription reaction. The nucleotide sequence of the cloned human LPA1 was determined by sequencing and confirmed to be identical to the published human LPA1 sequence (An et al. Biochem. Biophys. Res. Commun. 231:619 (1997). The cDNA was cloned into the pcDNA5/FRT expression plasmid and transfected in CHO cells using lipofectamine 2000 (Invitrogen Corp., USA). Clones stably expressing human LPA1 were selected using hygromycin and identified as cells that show Ca-influx in response to LPA.
Human LPA1 or LPA3 expressing CHO cells are seeded at 20,000-45,000 cells per well in a 96-well poly-D-lysine coated plate one or two days before the assay. Prior to the assay, the cells are washed once with PBS and then cultured in serum-free media overnight. On the day of the assay, a calcium indicator dye (Calcium 4, Molecular Devices) in assay buffer (HBSS with Ca^2+ and Mg^2+ and containing 20 mM Hepes and 0.3% fatty-acid free human serum albumin) is added to each well and incubation continued for 1 hour at 37° C. […] of test compounds in 2.5% DMSO are added to the cells and incubation continued at room temperature for 30 minutes. Cells are the stimulated by the addition of 10 nM LPA and intracellular Ca^2+ measured using the Flexstation 3 (Molecular Devices). IC50s are determined using Graphpad prism analysis of drug titration curves.

Broadly, the IC50 is the concentration that gives 50% inhibition.

For the molecule `Cc1noc(-c2ccc(-c3ccc(C4(C(=O)O)CC4)cc3)cc2)c1C(O)COCc1ccccc1` (single isomer, unassigned) [Compound 47, 1-{4′-[4-(2-Benzyloxy-1-hydroxy-ethyl)-3-methyl-isoxazol-5-yl]-biphenyl-4-yl}-cyclopropanecarboxylic acid], in assay [1], the IC50 was below 100 nM.
In the case of `Cc1noc(-c2ccc(-c3ccc(C4(C(=O)O)CC4)cc3)cc2)c1C(O)CCCc1cccc(C(F)(F)F)c1` (stereo not drawn) [Compound 36, 1-(4′-{4-[1-Hydroxy-4-(3-trifluoromethyl-phenyl)-butyl]-3-methyl-isoxazol-5-yl}-biphenyl-4-yl)-cyclopropanecarboxylic acid], the IC50 in assay [2] is below 300 nM.
Still for that read-out and setting: then `Cc1cccc(CCCC(O)c2c(C)noc2-c2ccc(-c3ccc(C4(C(=O)O)CC4)cc3)cc2)c1` (stereo not drawn) [Compound 37, 1-{4′-[4-(1-Hydroxy-4-m-tolyl-butyl)-3-methyl-isoxazol-5-yl]-biphenyl-4-yl}-cyclopropanecarboxylic acid], with below 300 nM; and `Cc1noc(-c2ccc(-c3ccc(C4(C(=O)O)CC4)cc3)cc2)c1C(O)CCCc1ccc(C(F)(F)F)cc1` (stereo not drawn) [Compound 39, 1-(4′-{4-[1-Hydroxy-4-(4-trifluoromethyl-phenyl)-butyl]-3-methyl-isoxazol-5-yl}-biphenyl-4-yl)-cyclopropanecarboxylic acid], with below 300 nM; and `Cc1noc(-c2ccc(-c3ccc(C4(C(=O)O)CC4)cc3)cc2)c1C(O)CCCc1ccccc1C(F)(F)F` (stereo not drawn) [Compound 40, 1-(4′-{4-[1-Hydroxy-4-(2-trifluoromethyl-phenyl)-butyl]-3-methyl-isoxazol-5-yl}-biphenyl-4-yl)-cyclopropanecarboxylic acid], with below 300 nM.
Regarding `Cc1noc(-c2ccc(-c3ccc(C4(C(=O)O)CC4)cc3)cc2)c1C(O)C(C)CCc1ccccc1` (stereo not drawn) [Compound 44, 1-{4′-[4-(1-Hydroxy-2-methyl-4-phenyl-butyl)-3-methyl-isoxazol-5-yl]-biphenyl-4-yl}-cyclopropanecarboxylic acid], in assay [2], the IC50 was below 300 nM.
Same read-out and setting: then `Cc1noc(-c2ccc(-c3ccc(C4(C(=O)O)CC4)cc3)cc2)c1C(O)C(C)(C)CCc1ccccc1` (stereo not drawn) [Compound 45, 1-{4′-[4-(1-Hydroxy-2,2-dimethyl-4-phenyl-butyl)-3-methyl-isoxazol-5-yl]-biphenyl-4-yl}-cyclopropanecarboxylic acid], with below 300 nM; and `Cc1noc(-c2ccc(-c3ccc(C4(C(=O)O)CC4)cc3)cc2)c1C(F)(F)CCCc1ccccc1` [Compound 46, 1-{4′-[4-(1,1-Difluoro-4-phenyl-butyl)-3-methyl-isoxazol-5-yl]-biphenyl-4-yl}-cyclopropanecarboxylic acid], with 1000 to 50000 nM.
Same read-out and setting: then `COc1ccc(CCC(C)Nc2c(C)noc2-c2ccc(-c3ccc(C4(C(=O)O)CC4)cc3)cc2)cc1` (stereo not drawn) [Compound 50, 1-(4′-{4-[3-(4-Methoxy-phenyl)-1-methyl-propylamino]-3-methyl-isoxazol-5-yl}-biphenyl-4-yl)-cyclopropanecarboxylic acid], with below 300 nM; and `Cc1noc(-c2ccc(-c3ccc(C4(C(=O)O)CC4)cc3)cc2)c1NC(C)CCc1ccccc1Cl` (stereo not drawn) [Compound 53, 1-(4′-{4-[3-(2-Chloro-phenyl)-1-methyl-propylamino]-3-methyl-isoxazol-5-yl}-biphenyl-4-yl)-cyclopropanecarboxylic acid], with below 300 nM; and `Cc1noc(-c2ccc(-c3ccc(C4(C(=O)O)CC4)cc3)cc2)c1NC(C)CCc1c(F)cccc1Cl` (stereo not drawn) [Compound 55, 1-(4′-{4-[3-(2-Chloro-6-fluoro-phenyl)-1-methyl-propylamino]-3-methyl-isoxazol-5-yl}-biphenyl-4-yl)-cyclopropanecarboxylic acid], with below 300 nM.
The same measure, in the same setting: then `Cc1noc(-c2ccc(-c3ccc(C4(C(=O)O)CC4)cc3)cc2)c1C(O)COCc1cccc(C(F)(F)F)c1` (stereo not drawn) [Compound 58, 1-(4′-{4-[1-Hydroxy-2-(3-trifluoromethyl-benzyloxy)-ethyl]-3-methyl-isoxazol-5-yl}-biphenyl-4-yl)-cyclopropanecarboxylic acid], with below 300 nM; and `Cc1noc(-c2ccc(-c3ccc(C4(C(=O)O)CC4)cc3)cc2)c1C(O)COCCc1ccccc1` (stereo not drawn) [Compound 59, 1-{4′-[4-(1-Hydroxy-2-phenethyloxy-ethyl)-3-methyl-isoxazol-5-yl]-biphenyl-4-yl}-cyclopropanecarboxylic acid], with below 300 nM; and `Cc1noc(-c2ccc(-c3ccc(C4(C(=O)O)CC4)cc3)cc2)c1C(O)C(F)(F)CCc1ccc(F)cc1` (stereo not drawn) [Compound 62, 1-(4′-{4-[2,2-Difluoro-4-(4-fluoro-phenyl)-1-hydroxy-butyl]-3-methyl-isoxazol-5-yl}-biphenyl-4-yl)-cyclopropanecarboxylic acid], with below 300 nM.
For `Cc1noc(-c2ccc(-c3ccc(C4(C(=O)O)CC4)cc3)cc2)c1C(O)CSCc1cccc(C(F)(F)F)c1` (stereo not drawn) [Compound 63, 1-(4′-{4-[1-Hydroxy-2-(3-trifluoromethyl-benzylsulfanyl)-ethyl]-3-methyl-isoxazol-5-yl}-biphenyl-4-yl)-cyclopropanecarboxylic acid], the 50% inhibitory concentration (IC50) in assay [2] is below 300 nM.
Take `Cc1noc(-c2ccc(-c3ccc(C4(C(=O)O)CC4)cc3)cc2)c1C(O)C(F)(F)CCc1ccc(C(F)(F)F)cc1` (stereo not drawn) [Compound 64, 1-(4′-{4-[2,2-Difluoro-1-hydroxy-4-(4-trifluoromethyl-phenyl)-butyl]-3-methyl-isoxazol-5-yl}-biphenyl-4-yl)-cyclopropanecarboxylic acid]: the IC50 in assay [2] was below 300 nM.
Still for that read-out and setting: with `CCC(CCc1ccccc1)Nc1c(C)noc1-c1ccc(-c2ccc(C3(C(=O)O)CC3)cc2)cc1` (stereo not drawn) [Compound 66, 1-{4′-[4-(1-Ethyl-3-phenyl-propylamino)-3-methyl-isoxazol-5-yl]-biphenyl-4-yl}-cyclopropanecarboxylic acid] the figure was below 300 nM.
As to `Cc1noc(-c2ccc(-c3ccc(C4(C(=O)O)CC4)cc3)cc2)c1NC(C)CC(C)(C)c1ccccc1` (stereo not drawn) [Compound 69, 1-{4′-[4-(1,3-Dimethyl-3-phenyl-butylamino)-3-methyl-isoxazol-5-yl]-biphenyl-4-yl}-cyclopropanecarboxylic acid], in assay [2], the IC50 was below 300 nM.
The same measure, in the same setting: then `Cc1noc(-c2ccc(-c3ccc(C4(C(=O)O)CC4)cc3)cc2)c1C(O)CC(C)(C)Cc1ccccc1` (stereo not drawn) [Compound 70, 1-{4′-[4-(1-Hydroxy-3,3-dimethyl-4-phenyl-butyl)-3-methyl-isoxazol-5-yl]-biphenyl-4-yl}-cyclopropanecarboxylic acid], with below 300 nM.
Same read-out and setting: with `Cc1noc(-c2ccc(-c3ccc(C4(C(=O)NS(C)(=O)=O)CC4)cc3)cc2)c1CSCCc1ccccc1` [Compound 71, N-[1-[4′-(3-Methyl-4-phenethylsulfanylmethyl-isoxazol-5-yl)-biphenyl-4-yl]-cyclopropanecarbonyl]-methanesulfonamide] the figure was below 300 nM.
The same measure, in the same setting: with `Cc1noc(-c2ccc(-c3ccc(C4(C(=O)NS(C)(=O)=O)CC4)cc3)cc2)c1C(O)COCCc1ccccc1` (stereo not drawn) [Compound 74, N-(1-{4′-[4-(1-Hydroxy-2-phenethyloxy-ethyl)-3-methyl-isoxazol-5-yl]-biphenyl-4-yl}-cyclopropanecarbonyl)-methanesulfonamide] the figure was below 300 nM; with `Cc1noc(-c2ccc(-c3ccc(C4(C(=O)NS(C)(=O)=O)CC4)cc3)cc2)c1CC(F)(F)CCc1ccccc1` [Compound 75, N-(1-{4′-[4-(2,2-Difluoro-4-phenyl-butyl)-3-methyl-isoxazol-5-yl]-biphenyl-4-yl}-cyclopropanecarbonyl)-methanesulfonamide], below 300 nM; with `Cc1ccc(S(=O)(=O)NC(=O)C2(c3ccc(-c4ccc(-c5onc(C)c5C(O)CCCc5ccccc5)cc4)cc3)CC2)cc1` (stereo not drawn) [Compound 78, N-(1-{4′-[4-(1-Hydroxy-4-phenyl-butyl)-3-methyl-isoxazol-5-yl]-biphenyl-4-yl}-cyclopropanecarbonyl)-4-methyl-benzenesulfonamide], below 300 nM.
As for `Cc1noc(-c2ccc(-c3ccc(C4(C(=O)NS(=O)(=O)C5CC5)CC4)cc3)cc2)c1C(O)CCCc1ccccc1` (stereo not drawn) [Compound 79], the IC50 in assay [2] was below 300 nM.

The record behind these values is US8217066B2, “Compounds as lysophosphatidic acid receptor antagonists” (Amira Pharmaceuticals, Inc., priority 2009, dated 2012).
